Where a name gives a salt, the structure may show the parent alone.
Legend:
[1] = tested on: MV4-11 cells; assay: Cell proliferation assay (ATPlite); type: cell-based; conditions: Homo sapiens, 120 h; MV4-11 cells, five days; read-out: GI MV411 EC50
How it was run: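 ATPlite luminescence after five days' culture (37° C, 5% CO2) gives viability. Compounds dosed in 10 concentrations up to 10 μM against DMSO; 1,000 cells/well seeded in Alpha-MEM/10% FBS.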

[2] = biological target: T1, WDR5 (Homo sapiens, UniProt P61964); assay: Fluorescence Polarization (FP) binding assay
How it was run: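 Buffer was pH 6.5 sodium phosphate (80 mM) with 20 mM KCl and 0.008% Triton X-100; 9-Ala-FAM probe at 20 nM used 0.05 μM WDR5 and 480/540 nm polarization, H3 (1-15) probe at 30 nM used 0.3 μM WDR5 and 485/528 nm. Quadruplicate data were hyperbola-fitted to give Kdisp.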

[3] = biological target: T1, WDR5; assay: Surface Plasmon Resonance (SPR) assay; type: binding; parameters: Full length WDR5 with an N-terminal His tag and C-terminal AviTag; His tag (N); made in house; host or cells: E. coli; conditions: read-out: SPR Kd
How it was run: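 Full-length biotinylated WDR5 (N-His, C-AviTag, E. coli) captured (~3000 RU) on streptavidin SA chip; Biacore T200. HBS-EP pH 7.4 plus 5% DMSO running buffer, 40 μl/min.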

| SMILES | EC50 [1] | IC50 [2] | Kd [3] |
| --- | --- | --- | --- |
| C[C@H]1CN(c2ncc(-c3c(F)cc(N4CCN(C)[C@@H](C)C4)c(NC(=O)c4ccc(F)cc4C(F)F)c3F)cn2)C[C@H](C)O1 [Example 157, 2-(Difluoromethyl)-N-(3-(2-((2S,6S)-2,6-dimethylmorpholino)pyrimidin-5-yl)-6-((S)-3,4-dimethylpiperazin-1-yl)-2,4-difluorophenyl)-4-fluorobenzamide] | 65.6 nM | 16.1 nM | 0.22 nM |
| C[C@@H]1CN(c2ncc(-c3c(F)cc(N4CCN(C)[C@@H](C)C4)c(NC(=O)c4ccc(F)cc4C(F)F)c3F)cn2)C[C@@H](C)O1 [Example 158, 2-(Difluoromethyl)-N-(3-(2-((2R,6R)-2,6-dimethylmorpholino)pyrimidin-5-yl)-6-((S)-3,4-dimethylpiperazin-1-yl)-2,4-difluorophenyl)-4-fluorobenzamide] | 88.3 nM | 14 nM | 0.43 nM |
| Cc1nc(C(=O)N2CC=C(c3c(F)cc(N4CCN(C)[C@@H](C)C4)c(NC(=O)c4c[nH]c(=O)cc4C(F)F)c3F)CC2)cs1 [Example 159, (S)-4-(difluoromethyl)-N-(6-(3,4-dimethylpiperazin-1-yl)-2,4-difluoro-3-(1-(2-methylthiazole-4-carbonyl)-1,2,3,6-tetrahydropyridin-4-yl)phenyl)-6-oxo-1,6-dihydropyridine-3-carboxamide] | 440 nM | 13.9 nM | 2.2 nM |
| C[C@H]1CN(c2ncc(-c3c(F)cc(N4CCN(C)[C@@H](C)C4)c(NC(=O)c4cn(C)c(=O)cc4C(F)F)c3F)cn2)C[C@H](C)O1 [Example 160, 4-(Difluoromethyl)-N-(3-(2-((2S,6S)-2,6-dimethylmorpholino)pyrimidin-5-yl)-6-((S)-3,4-dimethylpiperazin-1-yl)-2,4-difluorophenyl)-1-methyl-6-oxo-1,6-dihydropyridine-3-carboxamide] | 254 nM | 14 nM | 1.36 nM |
| C[C@@H]1CN(c2ncc(-c3c(F)cc(N4CCN(C)[C@@H](C)C4)c(NC(=O)c4cn(C)c(=O)cc4C(F)F)c3F)cn2)C[C@H](C)O1 [Example 161, 4-(Difluoromethyl)-N-(3-(2-((2S,6R)-2,6-dimethylmorpholino)pyrimidin-5-yl)-6-((S)-3,4-dimethylpiperazin-1-yl)-2,4-difluorophenyl)-1-methyl-6-oxo-1,6-dihydropyridine-3-carboxamide] | 79.3 nM | 11.9 nM | 1.1 nM |
| C[C@@H]1CN(c2ncc(-c3c(F)cc(N4CCN(C)[C@@H](C)C4)c(NC(=O)c4cn(C)c(=O)cc4C(F)F)c3F)cn2)C[C@@H](C)O1 [Example 162, 4-(Difluoromethyl)-N-(3-(2-((2R,6R)-2,6-dimethylmorpholino)pyrimidin-5-yl)-6-((S)-3,4-dimethylpiperazin-1-yl)-2,4-difluorophenyl)-1-methyl-6-oxo-1,6-dihydropyridine-3-carboxamide] | 210 nM | 14.1 nM | 1.25 nM |
| C[C@H]1CN(c2ncc(-c3c(F)cc(N4CCN(C)[C@@H](C)C4)c(NC(=O)c4cn(C)c(=O)cc4C(F)(F)F)c3F)cn2)C[C@H](C)O1 [Example 163, N-(3-(2-((2S,6S)-2,6-dimethylmorpholino)pyrimidin-5-yl)-6-((S)-3,4-dimethylpiperazin-1-yl)-2,4-difluorophenyl)-1-methyl-6-oxo-4-(trifluoromethyl)-1,6-dihydropyridine-3-carboxamide] | 83.4 nM | 15.3 nM | 1.1 nM |
| C[C@@H]1CN(c2ncc(-c3c(F)cc(N4CCN(C)[C@@H](C)C4)c(NC(=O)c4cn(C)c(=O)cc4C(F)(F)F)c3F)cn2)C[C@H](C)O1 [Example 164, N-(3-(2-((2S,6R)-2,6-dimethylmorpholino)pyrimidin-5-yl)-6-((S)-3,4-dimethylpiperazin-1-yl)-2,4-difluorophenyl)-1-methyl-6-oxo-4-(trifluoromethyl)-1,6-dihydropyridine-3-carboxamide] | 71.9 nM | 13.3 nM | 1.16 nM |
| C[C@@H]1CN(c2ccc(-c3c(F)cc(N4CCN(C)[C@@H](C)C4)c(NC(=O)c4ccc(F)cc4C(F)(F)F)c3F)cn2)CCO1 [Example 172, N-(6-((S)-3,4-dimethylpiperazin-1-yl)-2,4-difluoro-3-(6-((R)-2-methylmorpholino)pyridin-3-yl)phenyl)-4-fluoro-2-(trifluoromethyl)benzamide] | 124 nM | 18.9 nM | 1.02 nM |
| C[C@H]1CN(c2cc(F)c(-c3cnc(N4CCNCC4)nc3)c(F)c2NC(=O)c2ccc(F)cc2C(F)(F)F)CCN1C [Example 173, (S)—N-(6-(3,4-dimethylpiperazin-1-yl)-2,4-difluoro-3-(2-(piperazin-1-yl)pyrimidin-5-yl)phenyl)-4-fluoro-2-(trifluoromethyl)benzamide] | 24.4 nM | 16 nM | 1.35 nM |
| C[C@H]1CN(c2cc(F)c(-c3ccc(N4CCOCC4)nc3)c(F)c2NC(=O)c2ccc(F)cc2C(F)(F)F)CCN1C [Example 174, (S)—N-(6-(3,4-dimethylpiperazin-1-yl)-2,4-difluoro-3-(6-morpholinopyridin-3-yl)phenyl)-4-fluoro-2-(trifluoromethyl)benzamide] | 191 nM | 19.5 nM | 1.71 nM |

The next lines start with the values.

| EC50 [1] | IC50 [2] | Kd [3] | SMILES |
| --- | --- | --- | --- |
| 169 nM | 13.6 nM | 0.82 nM | C[C@@H]1CN(c2ncc(-c3c(F)cc(N4CCN(C)[C@@H](C)C4)c(NC(=O)c4cn(C)c(=O)cc4C(F)(F)F)c3F)cn2)C[C@@H](C)O1 [Example 165, N-(3-(2-((2R,6R)-2,6-dimethylmorpholino)pyrimidin-5-yl)-6-((S)-3,4-dimethylpiperazin-1-yl)-2,4-difluorophenyl)-1-methyl-6-oxo-4-(trifluoromethyl)-1,6-dihydropyridine-3-carboxamide] |
| 63.6 nM | 11.7 nM | 0.73 nM | C[C@H]1CN(c2ncc(-c3c(F)cc(N4CCN(C)[C@@H](C)C4)c(NC(=O)c4ccc(F)cc4C(F)(F)F)c3F)cn2)C[C@H](C)O1 [Example 166, N-(3-(2-((2S,6S)-2,6-dimethylmorpholino)pyrimidin-5-yl)-6-((S)-3,4-dimethylpiperazin-1-yl)-2,4-difluorophenyl)-4-fluoro-2-(trifluoromethyl)benzamide Formic Acid Salt] |
| 75.5 nM | 11.5 nM | 0.66 nM | C[C@@H]1CN(c2ncc(-c3c(F)cc(N4CCN(C)[C@@H](C)C4)c(NC(=O)c4ccc(F)cc4C(F)(F)F)c3F)cn2)C[C@@H](C)O1 [Example 167, N-(3-(2-((2R,6R)-2,6-dimethylmorpholino)pyrimidin-5-yl)-6-((S)-3,4-dimethylpiperazin-1-yl)-2,4-difluorophenyl)-4-fluoro-2-(trifluoromethyl)benzamide Formic Acid Salt] |
| 36.8 nM | 16.6 nM | 0.87 nM | C[C@@H]1CN(c2ccc(-c3c(F)cc(N4C[C@@H](C)N(C)[C@@H](C)C4)c(NC(=O)c4c[nH]c(=O)cc4C(F)(F)F)c3F)cn2)CCO1 [Example 168, N-(2,4-difluoro-3-(6-((R)-2-methylmorpholino)pyridin-3-yl)-6-((3S,5R)-3,4,5-trimethylpiperazin-1-yl)phenyl)-6-oxo-4-(trifluoromethyl)-1,6-dihydropyridine-3-carboxamide] |
| 51.4 nM | 16.7 nM | 0.99 nM | C[C@@H]1CN(c2ccc(-c3c(F)cc(N4CCN(C)[C@@H](C)C4)c(NC(=O)c4c[nH]c(=O)cc4C(F)(F)F)c3F)cn2)CCO1 [Example 169, N-(6-((S)-3,4-dimethylpiperazin-1-yl)-2,4-difluoro-3-(6-((R)-2-methylmorpholino)pyridin-3-yl)phenyl)-6-oxo-4-(trifluoromethyl)-1,6-dihydropyridine-3-carboxamide] |
| 32.3 nM | 15.6 nM | 0.83 nM | C[C@@H]1CN(c2ccc(-c3c(F)cc(N4CCN(C)[C@@H](C)C4)c(NC(=O)c4c[nH]c(=O)cc4C(F)(F)F)c3F)cn2)C[C@H](C)O1 [Example 170, N-(3-(6-((2S,6R)-2,6-dimethylmorpholino)pyridin-3-yl)-6-((S)-3,4-dimethylpiperazin-1-yl)-2,4-difluorophenyl)-6-oxo-4-(trifluoromethyl)-1,6-dihydropyridine-3-carboxamide] |
| 51.9 nM | 16.1 nM | 0.49 nM | C[C@H]1CN(c2ccc(-c3c(F)cc(N4CCN(C)[C@@H](C)C4)c(NC(=O)c4c[nH]c(=O)cc4C(F)(F)F)c3F)cn2)CCO1 [Example 171, N-(6-((S)-3,4-dimethylpiperazin-1-yl)-2,4-difluoro-3-(6-((S)-2-methylmorpholino)pyridin-3-yl)phenyl)-6-oxo-4-(trifluoromethyl)-1,6-dihydropyridine-3-carboxamide] |
| 255 nM | 24.6 nM | 1.57 nM | C[C@@H]1CN(c2ccc(-c3c(F)cc(N4CCN(C)[C@@H](C)C4)c(NC(=O)c4cn(C)c(=O)cc4C(F)F)c3F)cn2)C[C@H](C)O1 [Example 175, 4-(Difluoromethyl)-N-(3-(6-((2S,6R)-2,6-dimethylmorpholino)pyridin-3-yl)-6-((S)-3,4-dimethylpiperazin-1-yl)-2,4-difluorophenyl)-1-methyl-6-oxo-1,6-dihydropyridine-3-carboxamide] |

Source: patent US20200385371A1 (Propellon Therapeutics Inc., priority 2017, published 2020)
